Counter-ions that a name gives are not always drawn.
System: scopolamine-induced working memory deficit
Test: scopolamine-induced working memory deficit in the delayed match to position (DMTP) task in rats
Type: in vivo, Male Lister Hooded rats
Details: for effect on the scopolamine deficit in DMTP task (percent correct responses): combination: Compound 23 1 mg/kg p.o. 180 min prior to testing, donepezil hydrochloride 1 mg/kg p.o. 145 min later, scopolamine 0.06 mg/kg s.c. 5 min later
Experimental: Except for during testing, water was available ad libitum at all times. The rats were tested in Med Associates operant chambers, equipped with 2 retractable levers positioned 7.5 cm either side of a central food tray. A single stimulus light (cue light) was positioned above each lever. Aluminum barriers (5.5 cm chamber extension) were fitted within the chamber to separate each lever from the food magazine. The chambers were controlled by Kestrel software (Conclusive Solutions, Harlow, UK) operating on an IBM compatible PC.
Rats were initially trained to lever press for a food reward (45 mg Formula ‘P’ pellet, Noyes, N.H.) on a continuous reinforcement (CRF) schedule with each lever presented singly an equal number of times (total 96 trials). On acquiring this behaviour the animals were next trained to make a matching response. Each trial consisted of a single lever being inserted into the chamber and the illumination of the appropriate stimulus light (sample stage). The rat was required to press the sample lever, which then immediately retracted. […] If the animal pressed the other lever, it was recorded as an incorrect response and was unrewarded. […] The next trial was signalled by illumination of the house light for a 5 s period, after which the sample lever was extended. The number of such trials per session was 96.
Initially, the delay between the sample and choice stage was 1 s after the first magazine nose poke. Once the animals had learned the matching rule (≧90% correct), the delay period was increased to 1, 2 and 4 s (32 trials per delay), up to a final level of 1, 2, 4, 8, 16, 24s. Sixteen trials were run at each delay. […] The parameters measured include % correct (total no. correct/(total no. correct+incorrect)×100) both for the total session and for each delay interval. Percent correct responses at each delay interval were analysed using an analysis of variance (ANOVA) with repeated measures on Treatment and Delay. Total percent correct responses were analysed using an ANOVA with repeated measures on Treatment. Post hoc tests were conducted by Newman-Keuls test. Statistical significance was accepted at P<0.05.
The experiment was conducted using a repeated measures design with each animal receiving each treatment according to a counterbalanced design. Animals were run 5 days/-week, with drug treatment on 2 test days per week, separated by at least 2 days. […] Scopolamine hydrobromide was dissolved in saline solution and was administered s.c. using an injection volume of 1 ml/kg.

Structure (SMILES) | total correct responses collapsed over the delay intervals (scopolamine 0.06 mg/kg s.c.) | percent correct responses (per delay interval) (scopolamine 0.06 mg/kg s.c., delays 1-24 s) | effect on the scopolamine deficit in DMTP task (percent correct responses)
CN1[C@@H]2C[C@@H](OC(=O)[C@H](CO)c3ccccc3)C[C@H]1[C@@H]1O[C@@H]12 [Scopolamine, Scopolamine hydrobromide] | significant reduction | significant delay-dependent reduction | 
COc1cc2c(cc1OC)C(=O)C(CC1CCN(Cc3ccccc3)CC1)C2 (stereo not shown) [donepezil hydrochloride] |  |  | reversal of the scopolamine deficit
Cc1cc(-c2cccc(C3=Nc4cc(C)c(C(F)(F)F)cc4NC(=O)C3)c2)cc(C)n1 [Compound 23, 4-[3-(2,6-dimethyl-pyridin-4-yl)-phenyl]-7-methyl-8-trifluoromethyl-1,3-dihydro benzo[b][1,4]diazepin-2-one] |  |  | reversal of the scopolamine deficit
